Measured values published in ChEMBL document CHEMBL4265876, “Natural Products with Heteroatom-Rich Ring Systems” (J Nat Prod, 2017).
pIC50: −log10 of the molar value. Converted amounts (≈) assume the structure as drawn.

Tests used:
Ehrlich [1] = experiment: Antitumor activity against mouse Ehrlich carcinoma cells xenografted in white mouse assessed as growth inhibition at 50 mg/kg, ip for 7 days; type: functional; settings: 168 h, read-out: GI
Trypanosoma cruzi [2] = experiment: Antitrypanosomal activity against Trypanosoma cruzi Y by MTT assay; type: functional, organism-based
Trypanosoma cruzi [3] = experiment: Antitrypanosomal activity against Trypanosoma cruzi Y intracellular amastigotes; type: functional, organism-based
Candida albicans [4] = experiment: Antifungal activity against Candida albicans YO109; type: functional
Candida albicans [5] = experiment: Antifungal activity against Candida albicans SC5314; type: functional
Cryptococcus neoformans = experiment: Antifungal activity against Cryptococcus neoformans; type: functional
Trichophyton rubrum = experiment: Antifungal activity against Trichophyton rubrum; type: functional
[6] = system: Clavibacter michiganensis; experiment: Antibacterial activity against Clavibacter michiganensis; type: functional
Mycobacterium = experiment: Antibacterial activity against Mycobacterium B5; type: functional
[7] = system: Xanthomonas citri pv. malvacearum; experiment: Antibacterial activity against Xanthomonas malvacearum; type: functional
Ehrlich [8] = experiment: Antitumor activity against mouse Ehrlich carcinoma cells xenografted in white mouse assessed as growth inhibition at 0.2 mg/kg, ip for 7 days; type: functional; settings: 168 h, read-out: GI
Candida albicans [9] = experiment: Antifungal activity against Candida albicans assessed as inhibition zone at 120 ug/disk; type: functional; settings: read-out: IZ
Bacillus subtilis = experiment: […] activity against Bacillus subtilis assessed as inhibition zone at 120 ug/disk; type: functional; settings: read-out: IZ
[10] = system: Mycobacterium tuberculosis; experiment: Antibacterial activity against Mycobacterium tuberculosis H37Rv; type: functional
P388 = experiment: Cytotoxicity against mouse P388 cells; type: functional, cell-based
Escherichia coli = experiment: Antibacterial activity against Escherichia coli; type: functional
KB = experiment: Growth inhibition of human KB cells; type: functional, cell-based
PC-3 = experiment: Cytotoxicity against human PC3 cells; type: functional, cell-based
MIA PaCa-2 = experiment: Cytotoxicity against human MIAPaCa2 cells; type: functional, cell-based
Candida albicans [11] = experiment: Antifungal activity against Candida albicans assessed as inhibition zone at 2 ug/disk; type: functional; settings: read-out: IZ
HCT-116 = experiment: Cytotoxicity against human HCT116 cells; type: functional, cell-based
MCF7 = experiment: Cytotoxicity against human MCF7 cells; type: functional, cell-based
V79 = experiment: Cytotoxicity against chinese hamster V79 cells; type: cell-based; settings: Cricetulus griseus
HL-60 = experiment: Cytotoxicity against human HL60 cells; type: functional, cell-based
MDA-MB-468 = experiment: Cytotoxicity against human MDA-MB-468 cells; type: functional, cell-based

In the case of COc1[nH]nc2nncnc12, the inhibition in vivo at 50 mg/kg (Ehrlich [1]) was 83%.

With C=C(C)C1CNC(NCC=C(C)C)=NO1 (stereo not given) the IC50 (Trypanosoma cruzi [2]) was 93 µg/mL (≈ 444 µM) and the IC50 (Trypanosoma cruzi [3]) was 27 µg/mL (≈ 129 µM).

Work on CC[C@H]1CC/C(=C2\C(=O)O[C@H](C)C2=O)O1 yielded an MIC80 (Candida albicans [4]) of 8 µg/mL (≈ 38.1 µM), an MIC80 (Candida albicans [5]) of 32 µg/mL (≈ 152 µM) and an MIC80 (Cryptococcus neoformans) of 16 µg/mL (≈ 76.1 µM). The MIC80 (Trichophyton rubrum) was 64 µg/mL (≈ 304 µM).

Compound COc1nnc2nn(C)cnc1-2 has an MIC [6] of 5000 to 50000 µg/mL (≈ 30300 to 303000 µM), an MIC (Mycobacterium) of 5000 to 50000 µg/mL (≈ 30300 to 303000 µM) and an MIC [7] of 5000 to 50000 µg/mL (≈ 30300 to 303000 µM). It also gave an inhibition in vivo at 0.2 mg/kg (Ehrlich [8]) of 40%.

COc1cc(C2(c3ncc[nH]3)SSSCC2O)ccc1O (single isomer, unassigned; (+)) was tested, and the zone of inhibition at 120 µg/disc (Candida albicans [9]) was 4 mm, the zone of inhibition at 120 µg/disc (Bacillus subtilis) was 4 mm and the Activity [10] was 10%. For the same compound, the pIC50 (P388) was 4.67.

Work on Nc1ncn([C@@H]2O[C@H](CO)[C@@H](O)[C@H]2O)c(=O)n1 [AZACITIDINE] yielded an MIC (Escherichia coli) of 0.01 µg/mL (≈ 0.0409 µM) and an IC50 (KB) of 0.23 µg/mL (≈ 0.942 µM).

In the case of COc1cc(CCN)c2c(c1OC)SSSSS2 [VARACIN], the pIC50 (PC-3) was 9.22, the pIC50 (MIA PaCa-2) was 8.74 and the zone of inhibition at 2 µg/disc (Candida albicans [11]) was 14 mm. For the same compound, the IC90 (HCT-116) was 0.05 µg/mL (≈ 0.147 µM) and the pIC50 (MCF7) was 8.77.

With COc1c(SC)c(CCN(C)C)c2sc3c(CCN(C)C)c(SC)c(OC)c(OC)c3ssc2c1OC [LISSOCLINOTOXIN F] the pIC50 (V79) was 6.55, the pIC50 (HL-60) was 6.64 and the IC50 (MDA-MB-468) was 4.2 µg/mL (≈ 6.97 µM).
